Data reported in publication PMC10302047, “Structure–Activity Relationship Studies of Indolglyoxyl-Polyamine Conjugates as Antimicrobials and Antibiotic Potentiators” (Pharmaceuticals, 2023).
Values after ≈ are worked out from the molar mass of the structure shown. Read-outs that look alike come from different tables or passages of the source.

Experiments:
[1] = system: MRSA ATCC 43300; experiment: Antimicrobial susceptibility (MIC), MRSA; assay type: cell-based; settings: Staphylococcus aureus, read-out: MIC MRSA
Protocol: (§1) The susceptibility of bacterial strains S. aureus (ATCC 25923), E. coli (ATCC 25922) and P. aeruginosa (ATCC 27853) to antibiotics and compounds was determined according to previously reported protocols. Additional antimicrobial evaluation against MRSA (ATCC 43300) and C. albicans (ATCC 90028) was undertaken at the Community for Open Antimicrobial Drug Discovery at The University of Queensland (Australia) according to their standard protocols as reported previously.

[2] = system: E. coli ATCC 25922; experiment: Antimicrobial susceptibility (MIC), E. coli; assay type: cell-based; settings: Escherichia coli, ATCC25922, mean (n = 3)
Protocol: as §1

[3] = system: P. aeruginosa ATCC 27853; experiment: Antimicrobial susceptibility (MIC), P. aeruginosa; assay type: cell-based; settings: Pseudomonas aeruginosa
Protocol: as §1

[4] = system: P. aeruginosa ATCC 27853; experiment: Antibiotic potentiation (MIC of antibiotics in the presence of synergizing compounds), P. aeruginosa; assay type: cell-based, Pseudomonas aeruginosa; settings: concentration required to restore doxycycline activity at 2 µg/mL (4.5 µM) against P. aeruginosa ATCC 27853
[5] = system: S. aureus ATCC 25923; experiment: Antimicrobial susceptibility (MIC), S. aureus; assay type: cell-based, Staphylococcus aureus; settings: for MIC: Staphylococcus aureus, ATCC25923, S. aureus ATCC 25923, mean (n = 3)
Protocol: as §1

[6] = system: C. albicans ATCC 90028; experiment: Antifungal susceptibility (MIC), C. albicans; assay type: cell-based; settings: Candida albicans, ATCC90028, mean (n = 2)
Protocol: as §1

[7] = Cytotoxicity assay HEK293; assay type: cell-based, human; settings: human, HEK293 cells, mean (n = 2), read-out: Cyto. IC50 (concentration of compound at 50% cytotoxicity)
Protocol: Cytotoxicity assays were conducted according to previously reported protocols.

[8] = system: human red blood cells; experiment: Hemolytic assay; assay type: cell-based; settings: mean (n = 2)
Protocol: Hemolysis assays were conducted according to previously reported protocols.

[9] = ATCC27853, mean (n = 3), read-out: MIC P. a

Structure (SMILES)	MIC ([1]; MRSA ATCC 43300, mean (n = 2)) [µM]	MIC [2] [µM]	MIC [3, 9] [µM]	MIC [5] [µM]	MIC [6] [µM]	S. aureus and MRSA MIC (range over both strains) ([5]; S. aureus ATCC 25923 and MRSA, summary range in text) [µM]	MIC ([3]; ATCC27853, read-out: observed MIC of doxycycline) [µg/mL]	Conc (µM) for Potentiation of doxycycline [4] [µM]	IC50 [7] [µM]	Hem. HC10 (concentration of compound at 10% hemolytic activity) [8] [µM]	MIC [1] [µM]
O=C(NCCCNCCCCCCNCCCNC(=O)C(=O)c1c[nH]c2ccccc12)C(=O)c1c[nH]c2ccccc12.O=C(O)C(F)(F)F.O=C(O)C(F)(F)F [Compound 17a, N^1,N^6-Bis(3-(2-(1H-indol-3-yl)-2-oxoacetamido)propyl)hexane-1,6-diaminium 2,2,2-trifluoroacetate]	> 40	50	> 200	12.5	> 40	–	–	12.5	–	–	–
O=C(NCCCNCCCCCCCNCCCNC(=O)C(=O)c1c[nH]c2ccccc12)C(=O)c1c[nH]c2ccccc12.O=C(O)C(F)(F)F.O=C(O)C(F)(F)F [Compound 17b, N^1,N^7-Bis(3-(2-(1H-indol-3-yl)-2-oxoacetamido)propyl)heptane-1,7-diaminium 2,2,2-trifluoroacetate]	39	25	> 200	25	> 39	–	–	100	31	>39	–
O=C(NCCCNCCCCCCCCCCCCNCCCNC(=O)C(=O)c1c[nH]c2ccccc12)C(=O)c1c[nH]c2ccccc12 [Compound 17e]	9.04 (≈ 5.94 µg/mL)	> 200	> 200	25 (≈ 16.4 µg/mL)	36 (≈ 23.6 µg/mL)	–	–	6.25	5.6	>36	–
COc1cccc2c(C(=O)C(=O)NCCCNCCCCCCCCCCCCNCCCNC(=O)C(=O)c3c[nH]c4c(OC)cccc34)c[nH]c12 [Compound 22e]	≤ 0.26	12.5 (≈ 8.96 µg/mL)	800	3.12 (≈ 2.24 µg/mL)	≤ 0.26	0.26 to 3.125	–	400	–	0.93	–
Cc1cccc2c(C(=O)C(=O)NCCCNCCCCCCCCCCNCCCNC(=O)C(=O)c3c[nH]c4c(C)cccc34)c[nH]c12.O=C(O)C(F)(F)F.O=C(O)C(F)(F)F [Compound 23d, N^1,N^10-Bis(3-(2-(7-methyl-1H-indol-3-yl)-2-oxoacetamido)propyl)decane-1,10-diaminium 2,2,2-trifluoroacetate]	≤ 0.28	14.1	> 230	7.1	18	–	–	230	> 36	–	–
O=C(N[C@H](CO)[C@H](O)c1ccc([N+](=O)[O-])cc1)C(Cl)Cl [chloramphenicol, reference compound]	–	> 200	> 200	1.5 to 3 (≈ 0.485 to 0.969 µg/mL)	–	–	–	–	–	–	–
CC[C@H]1OC(=O)[C@H](C)[C@@H](O[C@H]2C[C@@](C)(OC)[C@@H](O)[C@H](C)O2)[C@H](C)[C@@H](O[C@@H]2O[C@H](C)C[C@H](N(C)C)[C@H]2O)[C@](C)(O)C[C@@H](C)C(=O)[C@H](C)[C@@H](O)[C@]1(C)O [erythromycin, reference compound]	–	> 200	> 200	–	–	–	–	–	–	–	–
OC(Cn1cncn1)(Cn1cncn1)c1ccc(F)cc1F [fluconazole, reference compound]	–	–	–	–	0.4 (≈ 0.123 µg/mL)	–	–	–	–	–	–
CCn1cc(C(=O)O)c(=O)c2ccc(C)nc21 [nalidixic acid, reference compound]	–	> 200	> 200	–	–	–	–	–	–	–	–
CC/C(=C(\c1ccccc1)c1ccc(OCCN(C)C)cc1)c1ccccc1 [tamoxifen, reference compound]	–	–	–	–	–	–	–	–	24	–	–
CN[C@H](CC(C)C)C(=O)N[C@H]1C(=O)N[C@@H](CC(N)=O)C(=O)N[C@H]2C(=O)N[C@H]3C(=O)N[C@H](C(=O)N[C@H](C(=O)O)c4cc(O)cc(O)c4-c4cc3ccc4O)[C@H](O)c3ccc(c(Cl)c3)Oc3cc2cc(c3O[C@@H]2O[C@H](CO)[C@@H](O)[C@H](O)[C@H]2O[C@H]2C[C@](C)(N)[C@H](O)[C@H](C)O2)Oc2ccc(cc2Cl)[C@H]1O [vancomycin, reference compound]	–	–	–	–	–	–	–	–	–	–	0.7 (≈ 1.01 µg/mL)

Continued by falling MIC [3, 9], values first:

MIC ([1]; MRSA ATCC 43300, mean (n = 2)) [µM]	MIC [2] [µM]	MIC [3, 9] [µM]	MIC [5] [µM]	MIC [6] [µM]	S. aureus and MRSA MIC (range over both strains) ([5]; S. aureus ATCC 25923 and MRSA, summary range in text) [µM]	MIC ([3]; ATCC27853, read-out: observed MIC of doxycycline) [µg/mL]	Structure (SMILES)	Conc (µM) for Potentiation of doxycycline [4] [µM]	IC50 [7] [µM]	Hem. HC10 (concentration of compound at 10% hemolytic activity) [8] [µM]	MIC [1] [µM]
4.7	12.5	800	3.12	> 37	–	–	Cc1ccc2[nH]cc(C(=O)C(=O)NCCCNCCCCCCCCNCCCNC(=O)C(=O)c3c[nH]c4ccc(C)cc34)c2c1.O=C(O)C(F)(F)F.O=C(O)C(F)(F)F [Compound 20c, N^1,N^8-Bis(3-(2-(5-methyl-1H-indol-3-yl)-2-oxoacetamido)propyl)octane-1,8-diaminium 2,2,2-trifluoroacetate]	400	> 37	–	–
≤ 0.28	12.5	800	3.12	9	–	–	Cc1ccc2[nH]cc(C(=O)C(=O)NCCCNCCCCCCCCCCNCCCNC(=O)C(=O)c3c[nH]c4ccc(C)cc34)c2c1.O=C(O)C(F)(F)F.O=C(O)C(F)(F)F [Compound 20d, N^1,N^10-Bis(3-(2-(5-methyl-1H-indol-3-yl)-2-oxoacetamido)propyl)decane-1,10-diaminium 2,2,2-trifluoroacetate]	400	> 36	–	–
–	12.5	800	3.12	2.2	–	–	Cc1ccc2[nH]cc(C(=O)C(=O)NCCCNCCCCCCCCCCCCNCCCNC(=O)C(=O)c3c[nH]c4ccc(C)cc34)c2c1.O=C(O)C(F)(F)F.O=C(O)C(F)(F)F [Compound 20e, N^1,N^12-Bis(3-(2-(5-methyl-1H-indol-3-yl)-2-oxoacetamido)propyl)dodecane-1,12-diaminium 2,2,2-trifluoroacetate]	400	–	2.0	–
4.5 (≈ 2.97 µg/mL)	200 (≈ 132 µg/mL)	800	25 (≈ 16.5 µg/mL)	> 36	–	–	COc1cccc2c(C(=O)C(=O)NCCCNCCCCCCCCNCCCNC(=O)C(=O)c3c[nH]c4c(OC)cccc34)c[nH]c12 [Compound 22c]	200	–	>36	–
≤ 0.3	50	200	12.5	> 39	–	–	Cc1ccc2[nH]cc(C(=O)C(=O)NCCCNCCCCCCNCCCNC(=O)C(=O)c3c[nH]c4ccc(C)cc34)c2c1.O=C(O)C(F)(F)F.O=C(O)C(F)(F)F [Compound 20a, N^1,N^6-Bis(3-(2-(5-methyl-1H-indol-3-yl)-2-oxoacetamido)propyl)hexane-1,6-diaminium 2,2,2-trifluoroacetate]	12.5	> 39	–	–
≤ 0.3	50	200	6.25	> 38	–	–	Cc1ccc2[nH]cc(C(=O)C(=O)NCCCNCCCCCCCNCCCNC(=O)C(=O)c3c[nH]c4ccc(C)cc34)c2c1.O=C(O)C(F)(F)F.O=C(O)C(F)(F)F [Compound 20b, N^1,N^7-Bis(3-(2-(5-methyl-1H-indol-3-yl)-2-oxoacetamido)propyl)heptane-1,7-diaminium 2,2,2-trifluoroacetate]	12.5	–	>38	–
18.7	117	117	14.6	37	–	–	O=C(NCCCNCCCCCCCCCCNCCCNC(=O)C(=O)c1c[nH]c2ccccc12)C(=O)c1c[nH]c2ccccc12.O=C(O)C(F)(F)F.O=C(O)C(F)(F)F [Compound 17d, N^1,N^10-Bis(3-(2-(1H-indol-3-yl)-2-oxoacetamido)propyl)decane-1,10-diaminium 2,2,2-trifluoroacetate]	58	4.9	>37	–
39 (≈ 23.4 µg/mL)	12.5 (≈ 7.51 µg/mL)	100	25 (≈ 15 µg/mL)	> 39	–	–	O=C(NCCCNCCCCCCCCNCCCNC(=O)C(=O)c1c[nH]c2ccccc12)C(=O)c1c[nH]c2ccccc12 [Compound 17c]	50	10	>39	–
–	–	70	–	–	–	–	CN(C)c1ccc(O)c2c1C[C@H]1C[C@H]3[C@H](N(C)C)C(O)=C(C(N)=O)C(=O)[C@@]3(O)C(O)=C1C2=O [minocycline, reference compound]	–	–	–	–
–	25 (≈ 11.1 µg/mL)	50	–	–	–	20	C[C@H]1c2cccc(O)c2C(=O)C2=C(O)[C@]3(O)C(=O)C(C(N)=O)=C(O)[C@@H](N(C)C)[C@@H]3[C@@H](O)[C@@H]21 [doxycycline, reference compound]	–	–	–	–
–	21.5 (≈ 12.5 µg/mL)	21.5	21.5 (≈ 12.5 µg/mL)	–	–	–	[H]/N=C(/N)N[C@H]1[C@H](O)[C@@H](O)[C@H](O[C@@H]2O[C@@H](C)[C@](O)(C=O)[C@H]2O[C@@H]2O[C@@H](CO)[C@H](O)[C@@H](O)[C@@H]2NC)[C@@H](N/C(N)=N\[H])[C@@H]1O [streptomycin, reference compound]	–	–	–	–
